From publication PMC9643456, “Matching amino acids membrane preference profile to improve activity of antimicrobial peptides” (Communications Biology, 2022)
In brackets after ≈: the same amount, converted by molar mass. Ends that are not written are not given here.

Columns and labels:
[1] = test system: S. aureus; design: method as in 7 sources, one per row (each row's own in cited_ref): ref 39 (a number printed in a supplementary file, which may have a reference list of its own: not looked up in the article's list) ||| ref 40 (a number printed in a supplementary file, which may have a reference list of its own: not looked up in the article's list) ||| ref 41 (a number printed in a supplementary file, which may have a reference list of its own: not looked up in the article's list) ||| ref 42 (a number printed in a supplementary file, which may have a reference list of its own: not looked up in the article's list) ||| ref 43 (a number printed in a supplementary file, which may have a reference list of its own: not looked up in the article's list) ||| ...; settings: 1 × 10^5 ~ 3.5 × 10^5 cfu/ml, MHB; cited from earlier work
[2] = test system: P. aeruginosa; design: method as in 7 sources, one per row (each row's own in cited_ref): ref 39 (a number printed in a supplementary file, which may have a reference list of its own: not looked up in the article's list) ||| ref 40 (a number printed in a supplementary file, which may have a reference list of its own: not looked up in the article's list) ||| ref 41 (a number printed in a supplementary file, which may have a reference list of its own: not looked up in the article's list) ||| ref 42 (a number printed in a supplementary file, which may have a reference list of its own: not looked up in the article's list) ||| ref 44 (a number printed in a supplementary file, which may have a reference list of its own: not looked up in the article's list) ||| ...; settings: 1 × 10^5 ~ 3.5 × 10^5 cfu/ml, MHB; cited from earlier work
[3] = test system: S. aureus KCTC 1621; assay: microbe, parasite or virus in culture; format: cell-based; settings: Staphylococcus aureus, KCTC1621, read-out: MIC at resistance induction condition, S. aureus KCTC 1621
Procedure: (§1) To assess antimicrobial activity, the MIC50 and MIC90 were measured using broth microdilution following CLSI guidelines. […] Each experiment was performed in triplicate. Meropenem (Sigma, Darmstadt, Germany) and colistin were used as control antibiotics. Cation-adjusted Mueller–Hinton broth (CAMHB) (Becton, Dickinson and Company, Franklin Lakes, USA) with supplied calcium (50 mg/L) and magnesium (10 mg/L) was used for the CLSI-test condition. Bacteria in midlog phase and peptides were separately diluted in CAMHB. The bacteria and peptide solutions were then mixed in 96-well polyethylene plates (SPL, Gyeonggi-do, Korea) and incubated for 18 h at 37 °C. The final concentration for bacteria was 5 × 10^5 CFU/ml. […] The MIC was defined to be the lowest concentration of peptide without visible turbidity by comparing with control antibiotics with the unaided eye. […] Each experiment was performed in triplicate. MICs in albumin and acetic acid solutions were measured using the same protocol but with 0.2% bovine serum albumin (Bovogen, Keilor, Australia), 0.01% acetic acid (Merck, New Jersey, USA), and CAMHB with both calcium and magnesium. In addition, MICs used in the antibiotic resistance acquisition test, the outer–inner membrane permeation test, and the transmembrane potential test and for FE-SEM were individually determined. The final bacterial concentrations used were as follows: for resistance acquisition, optical density (OD) 0.01; for outer–inner membrane permeability assays (LB), OD 0.1; for the transmembrane potential test, 1 × 10^8 CFU/ml (OD 0.171); […]. Inhibitory activity unidentifiable by direct observation was determined by counting the CFUs. Each experiment was performed at least twice.
A. baumannii (KCCM 40203) and S. aureus (KCTC 1621) were selected as drug-sensitive bacteria. […] The MIC for each antibiotic against bacteria (at OD 0.01) was measured. […]

[4] = test system: A. baumannii KCCM 40203; assay: microbe, parasite or virus in culture; settings: Acinetobacter baumannii, KCCM40203, read-out: MIC at resistance induction condition, A. baumannii KCCM 40203
Procedure: as §1
A. baumannii (KCCM 40203) and S. aureus (KCTC 1621) were selected as drug-sensitive bacteria. Mutation-susceptible tetracycline (an antibiotic that targets ribosomes) (Sigma, Darmstadt, Germany) and ofloxacin (an antibiotic that targets DNA gyrase) (Sigma, Darmstadt, Germany), mutation-resistant colistin (an antibiotic that targets lipopolysaccharide) (Sigma, Darmstadt, Germany) and vancomycin (an antibiotic that targets peptidoglycan pentapeptide) (Sigma, Darmstadt, Germany) were used as control antibiotics. The MIC for each antibiotic against bacteria (at OD 0.01) was measured. […] The MIC for each passage was confirmed by additional broth microdilutions under CLSI guidelines. Resistance acquisition was induced for 30 days (30 passages), and each MIC value was confirmed by an independent MIC test against bacteria at each passage.

[5] = test system: MDR S. aureus; assay: microbe, parasite or virus in culture; settings: Staphylococcus aureus, KCCM40510, 18 h, read-out: Minimum inhibitory concentrations, MDR S. aureus
Procedure, shortened: (§2)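 CLSI broth microdilution used CAMHB supplemented with Ca (50 mg/L) and Mg (10 mg/L); runs in triplicate against meropenem/colistin controls.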

[6] = test system: MDR P. aeruginosa; assay: microbe, parasite or virus in culture; settings: Pseudomonas aeruginosa, CCARM2180, 18 h, read-out: Minimum inhibitory concentrations, MDR P. aeruginosa
Procedure, shortened: as §2

[7] = test system: MDR A. baumannii; assay: microbe, parasite or virus in culture; settings: Acinetobacter baumannii, ATCCBAA1605, 18 h, read-out: Minimum inhibitory concentrations, MDR A. baumannii
Procedure, shortened: as §2

[8] = test system: MDR E. faecalis; assay: microbe, parasite or virus in culture; settings: Enterococcus faecalis, ATCC51575, 18 h, read-out: Minimum inhibitory concentrations, MDR E. faecalis
Procedure, shortened: as §2

[9] = test system: E. aerogenes NCCP 16285; assay: microbe, parasite or virus in culture; settings: Klebsiella aerogenes, NCCP16285, read-out: MIC, E. aerogenes NCCP 16285
Procedure: as §1

[10] = test system: K. pneumonia strains; assay: microbe, parasite or virus in culture; settings: Klebsiella pneumoniae, read-out: MIC, K. pneumonia NCCP 16125
Procedure: Twenty-six A. baumannii strains were clinically isolated and gifted to us by the Kyungpook National University School of Medicine. One A. baumannii strain (ATCC 17978) was purchased and gifted to us by Kyungpook National University School of Medicine. One A. baumannii strain and 10 K. pneumoniae strains (NCCP) were purchased from the National Culture Collection for Pathogens.
as §1

| Molecule | MIC (Strain 2), S. aureus ATCC 25923 [1] [µM] | MIC (Strain 1), P. aeruginosa H103 [2] [µM] | MIC [3] [µM] | MIC [4] [µM] | further results |
| --- | --- | --- | --- | --- | --- |
| KRRWRIWLV (not fully specified (C-terminus)) | 1.5 | 3.0 |  |  |  |
| KFKWWRMLI (not fully specified (C-terminus)) | 1.2 | 2.6 |  |  |  |
| RLWWKIWLK (not fully specified (C-terminus)) | 1.4 | 22.5 |  |  |  |
| CC1COc2c(N3CCN(C)CC3)c(F)cc3c(=O)c(C(=O)O)cn1c23 (centres unmarked) [Ofloxacin] |  |  | 1.25 (≈ 0.452 µg/mL) | 1.25 (≈ 0.452 µg/mL) |  |
| WKWLKKWIK (not fully specified (C-terminus)) | 0.7 | 2.9 |  |  |  |
| CN(C)[C@@H]1C(O)=C(C(N)=O)C(=O)[C@@]2(O)C(O)=C3C(=O)c4c(O)cccc4[C@@](C)(O)[C@H]3C[C@@H]12 [Tetracycline] |  |  | 1.25 (≈ 0.556 µg/mL) | 1.25 (≈ 0.556 µg/mL) |  |
| CN[C@H](CC(C)C)C(=O)N[C@H]1C(=O)N[C@@H](CC(N)=O)C(=O)N[C@H]2C(=O)N[C@H]3C(=O)N[C@H](C(=O)N[C@H](C(=O)O)c4cc(O)cc(O)c4-c4cc3ccc4O)[C@H](O)c3ccc(c(Cl)c3)Oc3cc2cc(c3O[C@@H]2O[C@H](CO)[C@@H](O)[C@H](O)[C@H]2O[C@H]2C[C@](C)(N)[C@H](O)[C@H](C)O2)Oc2ccc(cc2Cl)[C@H]1O [Vancomycin, reference compound] |  |  | 1.25 (≈ 1.81 µg/mL) | 1.25 (≈ 1.81 µg/mL) | MIC [5]: 1.25 µM (≈ 1.81 µg/mL); MIC [6]: > 5 µM; MIC [7]: > 5 µM; MIC [8]: > 20 µM; MIC [9]: > 5 µM; MIC [10]: > 5 µM |
